{"source": "ChEMBL document CHEMBL1201862", "about": "“PubChem BioAssay data set” (2004)", "test_in_all_cases": "inhibition of tumour cell growth, NCI panel, 48 h", "key": {"786-0": {"test_system": "786-0"}, "A498": {"test_system": "A498"}, "A549": {"test_system": "A549"}, "ACHN": {"test_system": "ACHN"}, "BT-549": {"test_system": "BT-549"}, "CAKI-1": {"test_system": "CAKI-1"}, "CCRF-CEM": {"test_system": "CCRF-CEM"}, "COLO 205": {"test_system": "COLO 205"}, "DU-145": {"test_system": "DU-145"}, "EKVX": {"test_system": "EKVX"}, "HCC 2998": {"test_system": "HCC 2998"}, "HCT-116": {"test_system": "HCT-116"}, "HCT-15": {"test_system": "HCT-15"}, "HL-60": {"test_system": "HL-60"}, "HOP-62": {"test_system": "HOP-62"}, "HOP-92": {"test_system": "HOP-92"}, "HT-29": {"test_system": "HT-29"}, "Hs-578T": {"test_system": "Hs-578T"}, "IGROV-1": {"test_system": "IGROV-1"}, "K562": {"test_system": "K562"}, "KM12": {"test_system": "KM12"}, "LOX IMVI": {"test_system": "LOX IMVI"}, "M14": {"test_system": "M14"}, "MCF7": {"test_system": "MCF7"}, "MDA-MB-435": {"test_system": "MDA-MB-435"}, "MDA-N": {"test_system": "MDA-N"}, "MOLT-4": {"test_system": "MOLT-4"}, "Malme-3M": {"test_system": "Malme-3M"}, "NCI-H226": {"test_system": "NCI-H226"}, "NCI-H23": {"test_system": "NCI-H23"}, "NCI-H460": {"test_system": "NCI-H460"}, "NCI-H522": {"test_system": "NCI-H522"}, "NCI/ADR-RES": {"test_system": "NCI/ADR-RES"}, "OVCAR-3": {"test_system": "OVCAR-3"}, "OVCAR-4": {"test_system": "OVCAR-4"}, "OVCAR-5": {"test_system": "OVCAR-5"}, "OVCAR-8": {"test_system": "OVCAR-8"}, "RPMI-8226": {"test_system": "RPMI-8226"}, "RXF 393": {"test_system": "RXF 393"}, "SF-268": {"test_system": "SF-268"}, "SF-295": {"test_system": "SF-295"}, "SF-539": {"test_system": "SF-539"}, "SK-MEL-28": {"test_system": "SK-MEL-28"}, "SK-MEL-5": {"test_system": "SK-MEL-5"}, "SK-OV-3": {"test_system": "SK-OV-3"}, "SN12C": {"test_system": "SN12C"}, "SNB-19": {"test_system": "SNB-19"}, "SR": {"test_system": "SR"}, "SW-620": {"test_system": "SW-620"}, "T47D": {"test_system": "T47D"}, "TK-10": {"test_system": "TK-10"}, "UACC-257": {"test_system": "UACC-257"}, "UACC-62": {"test_system": "UACC-62"}, "UO-31": {"test_system": "UO-31"}}, "note": "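Tested at 5 concentrations; 48 h exposure; 96-well plates; endpoints linearly interpolated, else capped at highest concentration. Here, GI50 denotes the concentration required for 50% inhibition of growth.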 The source made the active and inactive calls. Cut-off read from the data, not from the text of the source: active = GI50 up to about 1.1 µM and inactive = higher.", "data": [{"compound": "O=C(OCC(OC(=O)c1ccccc1)C(OC(=O)c1ccccc1)C(OC(=O)c1ccccc1)c1cnn(-c2ccccc2)n1)c1ccccc1", "note": "(centres undefined)", "values": [{"measurement": "GI50", "setting": "786-0", "result": "> 100 µM (inactive)"}, {"measurement": "GI50", "setting": "A498", "result": "> 100 µM (inactive)"}, {"measurement": "GI50", "setting": "A549", "result": "> 100 µM (inactive)"}, {"measurement": "GI50", "setting": "ACHN", "result": "> 100 µM (inactive)"}, {"measurement": "GI50", "setting": "BT-549", "result": "> 100 µM (inactive)"}, {"measurement": "GI50", "setting": "CAKI-1", "result": "> 100 µM (inactive)"}, {"measurement": "GI50", "setting": "CCRF-CEM", "result": "> 100 µM (inactive)"}, {"measurement": "GI50", "setting": "COLO 205", "result": "> 100 µM (inactive)"}, {"measurement": "GI50", "setting": "DU-145", "result": "> 100 µM (inactive)"}, {"measurement": "GI50", "setting": "EKVX", "result": "> 100 µM (inactive)"}, {"measurement": "GI50", "setting": "HCC 2998", "result": "> 100 µM (inactive)"}, {"measurement": "GI50", "setting": "HCT-116", "result": "> 100 µM (inactive)"}, {"measurement": "GI50", "setting": "HCT-15", "result": "> 100", "unit": "µM"}, {"measurement": "GI50", "setting": "HL-60", "result": "> 100 µM (inactive)"}, {"measurement": "GI50", "setting": "HOP-62", "result": "> 100 µM (inactive)"}, {"measurement": "GI50", "setting": "HOP-92", "result": "> 100 µM (inactive)"}, {"measurement": "GI50", "setting": "HT-29", "result": "> 100 µM (inactive)"}, {"measurement": "GI50", "setting": "Hs-578T", "result": "> 100 µM (inactive)"}, {"measurement": "GI50", "setting": "IGROV-1", "result": "> 100 µM (inactive)"}, {"measurement": "GI50", "setting": "K562", "result": "> 100 µM (inactive)"}, {"measurement": "GI50", "setting": "KM12", "result": "> 100 µM (inactive)"}, {"measurement": "GI50", "setting": "LOX IMVI", "result": "> 100 µM (inactive)"}, {"measurement": "GI50", "setting": "M14", "result": "> 100 µM (inactive)"}, {"measurement": "GI50", "setting": "MCF7", "result": "> 100 µM (inactive)"}, {"measurement": "GI50", "setting": "MDA-MB-435", "result": "> 100 µM (inactive)"}, {"measurement": "GI50", "setting": "MDA-N", "result": "> 100 µM (inactive)"}, {"measurement": "GI50", "setting": "MOLT-4", "result": "> 100 µM (inactive)"}, {"measurement": "GI50", "setting": "Malme-3M", "result": "> 100 µM (inactive)"}, {"measurement": "GI50", "setting": "NCI-H226", "result": "> 100 µM (inactive)"}, {"measurement": "GI50", "setting": "NCI-H23", "result": "> 100 µM (inactive)"}, {"measurement": "GI50", "setting": "NCI-H460", "result": "> 100 µM (inactive)"}, {"measurement": "GI50", "setting": "NCI-H522", "result": "> 100 µM (inactive)"}, {"measurement": "GI50", "setting": "NCI/ADR-RES", "result": "> 100 µM (inactive)"}, {"measurement": "GI50", "setting": "OVCAR-3", "result": "> 100 µM (inactive)"}, {"measurement": "GI50", "setting": "OVCAR-4", "result": "> 100 µM (inactive)"}, {"measurement": "GI50", "setting": "OVCAR-5", "result": "> 100 µM (inactive)"}, {"measurement": "GI50", "setting": "OVCAR-8", "result": "> 100 µM (inactive)"}, {"measurement": "GI50", "setting": "RPMI-8226", "result": "> 100 µM (inactive)"}, {"measurement": "GI50", "setting": "RXF 393", "result": "> 100 µM (inactive)"}, {"measurement": "GI50", "setting": "SF-268", "result": "> 100 µM (inactive)"}, {"measurement": "GI50", "setting": "SF-295", "result": "> 100 µM (inactive)"}, {"measurement": "GI50", "setting": "SF-539", "result": "> 100 µM (inactive)"}, {"measurement": "GI50", "setting": "SK-MEL-28", "result": "> 100 µM (inactive)"}, {"measurement": "GI50", "setting": "SK-MEL-5", "result": "> 100 µM (inactive)"}, {"measurement": "GI50", "setting": "SK-OV-3", "result": "> 100 µM (inactive)"}, {"measurement": "GI50", "setting": "SN12C", "result": "> 100 µM (inactive)"}, {"measurement": "GI50", "setting": "SNB-19", "result": "> 100 µM (inactive)"}, {"measurement": "GI50", "setting": "SR", "result": "> 100 µM (inactive)"}, {"measurement": "GI50", "setting": "SW-620", "result": "> 100 µM (inactive)"}, {"measurement": "GI50", "setting": "T47D", "result": "> 100 µM (inactive)"}, {"measurement": "GI50", "setting": "TK-10", "result": "> 100 µM (inactive)"}, {"measurement": "GI50", "setting": "UACC-257", "result": "> 100 µM (inactive)"}, {"measurement": "GI50", "setting": "UACC-62", "result": "> 100 µM (inactive)"}, {"measurement": "GI50", "setting": "UO-31", "result": "> 100 µM (inactive)"}]}]}
